According to patent US20050171032A1, “Methods for the treatment of cancer” (priority 2002, published 2005):

Legend:
EGFR = EGFR phosphorylation by immunoblot of detergent fractions, LNCaP cells; type: cell-based, human
Description: Mock- or filipin (2 μg/ml)-pretreated cells were incubated in serum-free medium with or without cholesterol/cyclodextrin (Cholesterol) complexes for 1 h at 37° C. followed by EGF treatment for 20 min. […] All cells were subjected to SDEM and the I- and S-fractions analyzed by immunoblot. p-EGFR indicates EGFR phosphorylated on Y1173 detected with a phospho-specific Ab. Cell viability measured by Trypan blue exclusion 1 h after treatment of cells with filipin (FIG. 2B).
LNCaP cells were used for all experiments shown. Prior to challenge with EGF (2 or 20 ng/ml), some groups of cells were treated with filipin (2 μg/ml) (lanes 7-12) for 1 h. Other cells (lanes 4-6, 10-12) were subsequently incubated with cyclodextrin/cholesterol complexes (Cholesterol) for 1 h to replete cholesterol (FIG. 4A). In this and subsequent panels, lysates were isolated following the various treatments and processed for immunoblot analysis. p-Akt refers to a phosphorylated form of Akt1 detected with a phospho-specific Ab (Ser-473). Cells were serum-starved overnight, then pretreated with 5 mM cyclodextrin for the indicated times (lanes 1-6), or treated for 1 h with varying concentrations of cyclodextrin (lanes 7-10), then treated immediately afterward with vehicle or with 5 ng/ml EGF (FIG. 4B). […]

LNCaP cells [1] = experiment: Apoptosis assays (TUNEL/flow cytometry, cell death detection ELISA, DNA ladder) in LNCaP cells; type: cell-based, human; conditions: serum-free, 20 μM LY294002 20 h, 2 μg/ml filipin 1 h, FIG. 3
Description: Apoptosis was quantified by TUNEL in combination with flow cytometry (FIG. 3A). LNCaP cells were seeded 24 h before treatments in 6-well plates at a density of 2-4×10^5/well. Conditions shown are: 20 h in serum-free medium (SFM); 20 μM LY294002 (LY); 20 μM LY294002 with 10 ng/ml EGF treatment (LY+E); 2 μg/ml filipin for 1 h (F); filipin treatment as (F) with 10 ng/ml EGF for 20 h (F+E); treatment with 2 μg/ml filipin and cyclodextrin/cholesterol complexes (C) for 1 h, followed by incubation with serum-free medium containing 20 μM LY294002 and 10 ng/ml EGF for 20 h (F+C+LY+E). Quantitative measurement of DNA fragmentation was performed with a cell death detection ELISA kit (FIG. 3B). […]
A quantitative sandwich ELISA was performed to measure mono- and oligonucleosomes in the cytoplasmic fraction of cell lysates according to the manufacturer's manual (Cell death detection ELISA) (Roche, Indianapolis, Ind.). Briefly, 1.5-2.0×10^5 cells/well were seeded in 6-well plates for 24 h, cell lysates were collected after various treatments as indicated, and the amount of histone-associated DNA fragments was quantified by spectrophotometric measurement of peroxidase activity retained in the immunocomplex (415 nm) against the substrate solution as a blank (490 nm). Apoptosis was also evaluated by the TUNEL method, using the In Situ Cell Death Detection Kit (Roche, Indianapolis, Ind.).

LNCaP cells [2] = experiment: Cell viability by Trypan blue exclusion; type: cell-based, human; conditions: 1 h after filipin treatment, at the doses used; FIG. 2
Description: Mock- or filipin (2 μg/ml)-pretreated cells were incubated in serum-free medium with or without cholesterol/cyclodextrin (Cholesterol) complexes for 1 h at 37° C. followed by EGF treatment for 20 min. (FIG. 2A). All cells were subjected to SDEM and the I- and S-fractions analyzed by immunoblot. p-EGFR indicates EGFR phosphorylated on Y1173 detected with a phospho-specific Ab. Cell viability measured by Trypan blue exclusion 1 h after treatment of cells with filipin (FIG. 2B).

Akt1 = Akt1 phosphorylation (Ser-473) by immunoblot, LNCaP cells; type: cell-based, human; conditions: FIG. 4A
Description: LNCaP cells were used for all experiments shown. Prior to challenge with EGF (2 or 20 ng/ml), some groups of cells were treated with filipin (2 μg/ml) (lanes 7-12) for 1 h. Other cells (lanes 4-6, 10-12) were subsequently incubated with cyclodextrin/cholesterol complexes (Cholesterol) for 1 h to replete cholesterol (FIG. 4A). In this and subsequent panels, lysates were isolated following the various treatments and processed for immunoblot analysis. p-Akt refers to a phosphorylated form of Akt1 detected with a phospho-specific Ab ([…]). […] Cell lysates were isolated following the various treatments and processed for immunoblot analysis. p-Akt=phosphorylated form of Akt detected with a phospho-specific Ab ([…]). […] In these experiments the apoptosis of cells treated with simvastatin or mock-treated, with or without raft reconstitution, was quantified by cell death detection ELISA (Roche). Cells were either mock-treated or treated with various doses of simvastatin as indicated for 16 hours and the amount of apoptosis was quantified by ELISA and is graphically represented as absorbance at 405 nm-490 nm vs. dose of statin drug±SD from triplicate determinations (FIG. 6B). The cells were treated either in simvastatin (Sim; 10 μM) or simvastatin (Sim) and cyclodextrin/cholesterol complex (+cholesterol) for 4 hours and the amount of apoptosis was quantified by ELISA (FIG. 6C). […]

LNCaP-Cav-1 cells = experiment: EGFR and Akt1 phosphorylation by immunoblot, caveolin-1 transfected LNCaP cells; type: cell-based, human; conditions: 2 μg/ml filipin 1 h, 5 ng/ml EGF 20 min, FIG. 4F
Description: LNCaP cells were used for all experiments shown. Prior to challenge with EGF (2 or 20 ng/ml), some groups of cells were treated with filipin (2 μg/ml) (lanes 7-12) for 1 h. Other cells (lanes 4-6, 10-12) were subsequently incubated with cyclodextrin/cholesterol complexes (Cholesterol) for 1 h to replete cholesterol (FIG. 4A). In this and subsequent panels, lysates were isolated following the various treatments and processed for immunoblot analysis. p-Akt refers to a phosphorylated form of Akt1 detected with a phospho-specific Ab (Ser-473). Cells were serum-starved overnight, then pretreated with 5 mM cyclodextrin for the indicated times (lanes 1-6), or treated for 1 h with varying concentrations of cyclodextrin (lanes 7-10), then treated immediately afterward with vehicle or with 5 ng/ml EGF (FIG. 4B). Cells were either mock-treated or treated with varying doses of filipin as indicated for 1 h followed by 5 ng/ml EGF treatment (FIG. 4C). Serum-containing medium was removed and cells were treated immediately with 2 μg/ml filipin alone under serum-free conditions for the times shown (FIG. 4D). No change in EGFR or Akt1 phosphorylation was observed when serum was removed and cells were not treated with filipin (not shown). […]

PC-3 cells = experiment: EGFR and Akt1 phosphorylation by immunoblot, PC-3 cells; type: cell-based, human; conditions: 2 μg/ml filipin 1 h, 5 ng/ml EGF 20 min, FIG. 4F
Description: Prior to challenge with EGF (2 or 20 ng/ml), some groups of cells were treated with filipin (2 μg/ml) (lanes 7-12) for 1 h. […] In this and subsequent panels, lysates were isolated following the various treatments and processed for immunoblot analysis. p-Akt refers to a phosphorylated form of Akt1 detected with a phospho-specific Ab (Ser-473). […] LNCaP-Cav-1 cells and PC-3 cells were mock-treated or treated with 2 μg/ml filipin for 1 h at 37° C. […] Prior to the collection of cell lysates and immunoblot analysis, cells were stimulated with 5 ng/ml EGF for 20 min at 37° C.
Human PCa cell lines LNCaP and PC-3 were purchased from the American Type Culture Collection (ATCC; Rockville, Md.). Both cell lines were cultured in RPMI 1640 supplemented with 10% heat-inactivated FBS.

[3] = test system: prostate glandular hyperplasia; conditions: dogs; published evidence (30); cited from earlier work
[4] = test system: Human primary culture prostate epithelial cells; experiment: Apoptosis by cell death detection ELISA in primary culture prostate epithelial cells; type: cell-based; conditions: various concentrations simvastatin, 16 hours; FIG. 7
Description: Human primary culture prostate epithelial cells were treated with various concentrations simvastatin or were mock treated as indicated at 37 °C for 16 hours. Subsequently the cells were lysed and apoptosis was quantified by cell death detection ELISA (Roche).

## CCCCC[C@@H](O)[C@H]1C(=O)O[C@H](C)[C@@H](O)/C=C/C=C/C=C/C=C/C=C(\C)[C@@H](O)C[C@H](O)C[C@H](O)C[C@H](O)C[C@H](O)C[C@H](O)C[C@@H]1O [filipin, Filipin]
EGFR; filipin pretreatment 2 μg/ml, then EGF 20 min, FIG. 2
  ligand-dependent EGFR phosphorylation in the I-fraction: suppressed
EGFR; varying filipin doses and times, FIG. 4A, C, D
  constitutive and EGF-induced EGFR phosphorylation: decreased with filipin treatment in a dose- and time-dependent fashion
LNCaP cells [1]
  apoptosis: stimulated apoptosis to a similar extent as the PI3K inhibitor
LNCaP cells [2]
  cells that excluded Trypan blue: 100%
Akt1; 2 μg/ml filipin 1 h, 20 ng/ml EGF
  EGF-induced Akt1 phosphorylation: substantially reduced
Akt1; varying filipin doses and times, C, D
  constitutive and EGF-induced Akt1 phosphorylation: decreased with filipin treatment in a dose- and time-dependent fashion
LNCaP-Cav-1 cells
  ligand-induced Akt1 phosphorylation: suppressed
  ligand-induced EGFR phosphorylation: suppressed
PC-3 cells
  ligand-induced Akt1 phosphorylation: suppressed
  ligand-induced EGFR phosphorylation: suppressed
[3]
  reduction of prostate glandular hyperplasia: up to 75%
  toxicity: no toxicity

## CCC(C)(C)C(=O)O[C@H]1C[C@@H](C)C=C2C=C[C@H](C)[C@H](CC[C@@H]3C[C@@H](O)CC(=O)O3)[C@H]21 [simvastatin]
[4]
  apoptosis in normal prostatic cells: does not cause apoptosis
